Measured values from paper PMC6767220, “Active Anti-Inflammatory and Hypolipidemic Derivatives of Lorazepam” (Molecules, 2019).
Like-named read-outs stand apart in the source and are kept apart here.

How the values were obtained:
[1] = test system: inflammation; details: cited from earlier work
[2] = Interaction with the stable radical DPPH; details: DPPH 200 µΜ, 30 min incubation
Protocol: Compounds (in absolute ethanol, final concentration 50–200 µM) were added to an equal volume of an ethanolic solution of DPPH (final concentration 200 µM) at room temperature (22 ± 2 °C). Absorbance (517 nm) was recorded after 30 min [22].

[3] = test system: Triton WR1339 (tyloxapol) induced hyperlipidemia; experiment: Triton WR1339 (tyloxapol) induced hyperlipidemia: plasma TC, TG, LDL-C; format: in vivo; details: ip, rat plasma, dose i.p. 150 µmol/kg, 24 h, tyloxapol 200 mg/kg i.p.
[4] = target: T1, soybean lipoxygenase-1 (Glycine max, UniProt P08170); experiment: Inhibition of soybean lipoxygenase; format: biochemical; details: sodium linoleate 0.1 mM, 7 min incubation
T1 sequence (P08170 1-839): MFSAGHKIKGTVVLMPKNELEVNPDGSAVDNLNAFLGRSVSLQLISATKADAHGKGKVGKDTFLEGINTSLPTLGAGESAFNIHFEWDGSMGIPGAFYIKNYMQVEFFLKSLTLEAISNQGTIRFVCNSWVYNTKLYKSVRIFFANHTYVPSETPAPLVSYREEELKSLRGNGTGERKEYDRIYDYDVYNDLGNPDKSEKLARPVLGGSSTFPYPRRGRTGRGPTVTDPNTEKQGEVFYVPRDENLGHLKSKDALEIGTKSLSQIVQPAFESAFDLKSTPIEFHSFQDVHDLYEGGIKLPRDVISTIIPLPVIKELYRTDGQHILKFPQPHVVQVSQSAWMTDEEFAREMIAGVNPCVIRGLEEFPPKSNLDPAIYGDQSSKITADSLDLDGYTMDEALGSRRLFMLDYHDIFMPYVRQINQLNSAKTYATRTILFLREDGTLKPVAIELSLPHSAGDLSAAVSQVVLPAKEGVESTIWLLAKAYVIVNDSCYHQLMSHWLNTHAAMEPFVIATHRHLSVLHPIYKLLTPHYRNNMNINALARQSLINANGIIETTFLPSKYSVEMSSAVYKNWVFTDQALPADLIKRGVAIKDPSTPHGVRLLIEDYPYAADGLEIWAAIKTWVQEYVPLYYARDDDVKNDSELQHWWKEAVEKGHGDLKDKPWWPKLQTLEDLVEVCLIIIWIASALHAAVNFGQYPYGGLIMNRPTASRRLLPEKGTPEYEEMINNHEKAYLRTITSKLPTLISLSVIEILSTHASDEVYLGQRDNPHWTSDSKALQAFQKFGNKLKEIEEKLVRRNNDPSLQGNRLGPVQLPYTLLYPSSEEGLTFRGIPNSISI
Protocol: The reaction mixture contained the test compounds dissolved in ethanol and soybean lipoxygenase (250 U/mL) in Tris buffer (pH 9). The reaction was initiated by the addition of sodium linoleate (0.1 mM) and monitored for 7 min at 28 °C, by recording the absorbance of a conjugated diene structure at 234 nm. For the estimation of the type of inhibition, the above experiments were repeated, using sodium linoleate at 1 mM, which is higher than the saturating substrate concentration.

[5] = test system: carrageenan-induced rat paw oedema; experiment: Carrageenan-induced rat paw oedema; format: in vivo; details: ip, i.p. 0.15 mmol/kg, 3.5 h post administration, vs controls, read-out: % Oedema Reduction
Protocol: An aqueous solution of carrageenan was prepared (1% w/v) and 0.1 mL of this was injected i.d. into the right hind paw of female rats; the left paw served as control. The tested compounds (suspended in water with a few drops of Tween 80) were given intra peritoneally (i.p.) (0.15 mmol/kg) 5 min prior to the carrageenan injection. After 3.5 h the hind paws were weighed separately. The produced oedema was estimated as paw weight increase.

[6] = test system: rat hepatic microsomal membrane lipid peroxidation; experiment: Inhibition of rat hepatic microsomal membrane lipid peroxidation induced by ferrous ascorbate; format: biochemical; details: rat hepatic microsomal fraction, ferrous ascorbate, 45 min incubation
Protocol: The incubation mixture contained heat-inactivated rat hepatic microsomal fraction, ascorbic acid (0.2 mM) in Tris–HCl/KCl buffer (pH 7.4) and the test compounds dissolved in dimethylsulphoxide. The reaction was initiated by FeSO4 (10 µM) and the mixture was incubated at 37 °C. Aliquots were taken at various time intervals for 45 min. Lipid peroxidation was assessed spectrophotometrically (535 against 600 nm) by the determination of 2-thiobarbituric acid (TBA) reactive material.

[7] = test system: inflammation; parameters: method as in PMID 25792646; details: cited from earlier work

In the case of `O=C(O)CCCC[C@@H]1CCSS1` [lipoic acid, (R)-5-(1,2-dithiolan-3-yl)pentanoic acid], the Anti-inflammatory action ([1]; at similar doses) is given as “weak anti-inflammatory agent”.

For `Cc1c(C)c2c(c(C)c1O)CCC(C)(C(=O)OC1N=C(c3ccccc3Cl)c3cc(Cl)ccc3NC1=O)O2` (centres unmarked) [Compound 7, 7-Chloro-5-(2-chlorophenyl)-2-oxo-2,3-dihydro-1H-benzo[e][1,4]diazepin-3-yl 6-hydroxy-2,5,7,8-tetramethylchroman-2-carboxylate], the “Percent Interaction with DPPH” value ([2]; compound 50 µΜ) was 46%, the “Percent Interaction with DPPH” value ([2]; compound 100 µΜ) was 82% and the “Percent Interaction with DPPH” value ([2]; compound 200 µΜ) was 91%. The inhibition in vivo at 150 µmol/kg ([3]; read-out: % Reduction LDL-C (LDL cholesterol)) was 69%, the inhibition in vivo at 150 µmol/kg ([3]; read-out: % Reduction TC (total cholesterol)) was 72% and the inhibition in vivo at 150 µmol/kg ([3]; read-out: % Reduction TG (triglycerides)) was 64%. The “Lipoxygenase IC50” value [4] was “-”, the inhibition in vivo at 150 µmol/kg [5] was 56% and the melting point was 138 to 144 °C. For the same molecule, the IC50 [6] was 2.5 µM.

For `Cc1cc(C(C)(C)C)c(O)c(C(C)(C)C)c1` [BHT, 2,6-di-tert-butyl-4-methylphenol], the IC50 ([4]; read-out: Lipoxygenase IC50) is listed as 192 µM, the “Anti-inflammatory action in vitro” value [7] is listed as “lacks such action” and the “Anti-inflammatory action in vivo” value [1] is listed as “lacks such action”.
